In ChEMBL document CHEMBL1135763, “Discovery of aminothiazole inhibitors of cyclin-dependent kinase 2: synthesis, X-ray crystallographic analysis, and biological activities” (J Med Chem, 2002):
Values belong to the compound of their own block, whether it stands above or below them.

Legend:
A2780 [1] = test: Inhibition of A2780 / DDP-R human ovarian carcinoma cell proliferation; type: functional, cell-based
MCF7 = test: Inhibition of MCF-7 human breast carcinoma cell proliferation; type: functional, cell-based
[2] = molecular target: Cyclin-dependent kinase 2 (Homo sapiens) (UniProt P24941); test: Percentage A2780 cells in G2/M after 24 hr r at 20 nM (IC50); type: functional, cell-based
[3] = molecular target: Cyclin-dependent kinase 1/cyclin B (Homo sapiens, UniProt P06493); test: Inhibitory activity against baculovirus expressed Cyclin dependent kinase 1-cyclinB; type: protein-complex assay
[4] = molecular target: Cyclin-dependent kinase 2 (Homo sapiens) (UniProt P24941); test: Apoptotic A2780 cells after 24 hr r at 295 nM (IC90); type: functional, cell-based
A2780 [5] = test: Inhibition of A2780 / TAX-R human ovarian carcinoma cell proliferation; type: functional, cell-based
A549 = test: Inhibition of A549 human lung carcinoma cell proliferation; type: functional, cell-based
[6] = molecular target: Cyclin-dependent kinase 2 (Homo sapiens) (UniProt P24941); test: Percentage A2780 cells in sub-G1 after 24 hr r at 20 nM (IC50); type: functional, cell-based
[7] = molecular target: Cyclin-dependent kinase 4/cyclin D1 (Homo sapiens, UniProt P11802); test: Inhibitory activity against baculovirus expressed Cyclin dependent kinase 4-cyclinD1; type: protein-complex assay
Cyclin-dependent kinase 4/cyclin D1, sequence (P11802 whole entry): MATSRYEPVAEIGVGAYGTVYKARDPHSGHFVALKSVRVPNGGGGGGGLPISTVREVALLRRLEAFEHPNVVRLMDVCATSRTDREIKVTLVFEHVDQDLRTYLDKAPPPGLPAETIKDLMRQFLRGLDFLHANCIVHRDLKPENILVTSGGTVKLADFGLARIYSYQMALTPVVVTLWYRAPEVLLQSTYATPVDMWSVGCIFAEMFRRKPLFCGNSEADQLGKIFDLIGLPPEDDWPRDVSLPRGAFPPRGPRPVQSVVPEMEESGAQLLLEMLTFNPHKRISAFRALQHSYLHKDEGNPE
Cyclin-dependent kinase 4/cyclin D1, sequence (P24385 whole entry, further chain): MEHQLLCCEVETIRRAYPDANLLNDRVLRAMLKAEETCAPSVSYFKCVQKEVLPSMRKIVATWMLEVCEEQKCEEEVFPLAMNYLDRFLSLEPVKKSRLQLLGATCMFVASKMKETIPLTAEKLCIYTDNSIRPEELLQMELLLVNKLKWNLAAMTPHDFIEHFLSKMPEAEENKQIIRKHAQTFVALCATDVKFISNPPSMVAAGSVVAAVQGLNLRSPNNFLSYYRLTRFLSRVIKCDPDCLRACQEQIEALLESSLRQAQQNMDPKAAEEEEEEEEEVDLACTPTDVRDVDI

Caco-2 = test: Inhibition of CACO-2 human colon carcinoma cell proliferation; type: functional, cell-based
A2780 [8] = test: Inhibition of A2780 / DDP-S human ovarian carcinoma cell proliferation; type: functional, cell-based
[9] = molecular target: Cyclin-dependent kinase 2 (Homo sapiens) (UniProt P24941); test: Percentage A2780 cells in S-phase after 24 hr r at 295 nM (IC90); type: functional, cell-based
[10] = molecular target: Cyclin-dependent kinase 2 (Homo sapiens) (UniProt P24941); test: Apoptotic A2780 cells after 24 hr r at 20 nM (IC50); type: functional, cell-based
OVCAR-3 = test: Inhibition of OVCAR-3 human ovarian carcinoma cell proliferation; type: functional, cell-based
LX-1 = test: Inhibition of LX-1 human lung carcinoma proliferation; type: functional, cell-based
HL-60 = test: Inhibition of HL60 human leukemia cell proliferation; type: functional, cell-based
[11] = molecular target: Cyclin-dependent kinase 2/cyclin E (Homo sapiens, UniProt P24941); test: Inhibitory activity against baculovirus expressed Cyclin dependent kinase 2-cyclinE; type: protein-complex assay
K562 = test: Inhibition of K562 human leukemia cell proliferation; type: functional, cell-based
CCRF-CEM = test: Inhibition of CCRF-CEM human leukemia cell proliferation; type: functional, cell-based
MLF = test: Inhibition of MLF mouse lung fibroblast cell proliferation; type: functional, cell-based
PC-3 = test: Inhibition of PC3 human prostate carcinoma cell proliferation; type: functional, cell-based
HCT-116 [12] = test: Inhibition of HCT116 / VM46 human colon carcinoma cell proliferation; type: functional, cell-based
[13] = molecular target: Cyclin-dependent kinase 2 (Homo sapiens) (UniProt P24941); test: Percentage A2780 cells in G1 after 24 hr r at 295 nM (IC90); type: functional, cell-based
M109 = test: Inhibition of M109 mouse lung carcinoma cell proliferation; type: functional, cell-based
[14] = molecular target: Cyclin-dependent kinase 2 (Homo sapiens) (UniProt P24941); test: Percentage A2780 cells in sub-G1 after 24 hr r at 295 nM (IC90); type: functional, cell-based
HCT-116 [15] = test: Inhibition of HCT116 / VP35 human colon carcinoma cell proliferation; type: functional, cell-based
LS174T = test: Inhibition of LS174T human colon carcinoma cell proliferation; type: functional, cell-based
[16] = molecular target: Receptor tyrosine-protein kinase erbB-2 (Homo sapiens, UniProt P04626); test: Inhibition of HER2 kinase
Receptor tyrosine-protein kinase erbB-2, sequence (P04626 whole entry): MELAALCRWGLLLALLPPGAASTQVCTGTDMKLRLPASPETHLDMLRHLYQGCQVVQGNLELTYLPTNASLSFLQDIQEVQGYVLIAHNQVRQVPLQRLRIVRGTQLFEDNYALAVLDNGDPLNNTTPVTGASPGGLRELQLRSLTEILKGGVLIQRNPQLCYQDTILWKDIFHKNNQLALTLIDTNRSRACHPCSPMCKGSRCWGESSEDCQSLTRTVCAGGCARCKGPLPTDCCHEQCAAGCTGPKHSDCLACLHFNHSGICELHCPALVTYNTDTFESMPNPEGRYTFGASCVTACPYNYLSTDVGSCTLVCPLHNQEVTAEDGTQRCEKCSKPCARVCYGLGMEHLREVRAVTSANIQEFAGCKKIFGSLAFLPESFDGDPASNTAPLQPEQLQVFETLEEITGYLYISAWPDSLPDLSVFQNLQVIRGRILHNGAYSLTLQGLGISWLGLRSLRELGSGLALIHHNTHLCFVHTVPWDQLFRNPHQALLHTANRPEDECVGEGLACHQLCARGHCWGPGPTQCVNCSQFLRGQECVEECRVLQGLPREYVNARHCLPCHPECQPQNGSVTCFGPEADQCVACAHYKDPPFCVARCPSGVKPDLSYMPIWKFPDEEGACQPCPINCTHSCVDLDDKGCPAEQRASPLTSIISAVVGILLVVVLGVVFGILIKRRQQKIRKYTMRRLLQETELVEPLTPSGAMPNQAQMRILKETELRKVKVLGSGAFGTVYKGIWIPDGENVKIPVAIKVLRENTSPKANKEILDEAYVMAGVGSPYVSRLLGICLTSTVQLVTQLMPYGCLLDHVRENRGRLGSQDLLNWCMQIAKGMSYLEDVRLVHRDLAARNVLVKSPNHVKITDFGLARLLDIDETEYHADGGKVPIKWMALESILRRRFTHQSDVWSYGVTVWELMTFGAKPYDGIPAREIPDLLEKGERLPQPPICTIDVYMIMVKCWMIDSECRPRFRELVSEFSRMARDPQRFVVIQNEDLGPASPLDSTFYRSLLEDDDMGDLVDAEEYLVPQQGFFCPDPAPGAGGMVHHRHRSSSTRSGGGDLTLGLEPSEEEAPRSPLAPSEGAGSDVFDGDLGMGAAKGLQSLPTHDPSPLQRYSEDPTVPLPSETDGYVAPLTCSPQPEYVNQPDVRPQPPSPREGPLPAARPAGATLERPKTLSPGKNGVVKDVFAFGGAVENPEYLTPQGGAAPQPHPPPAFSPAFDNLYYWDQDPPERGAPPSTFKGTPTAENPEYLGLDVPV

[17] = molecular target: Cyclin-dependent kinase 2 (Homo sapiens) (UniProt P24941); test: Percentage A2780 cells in S-phase after 24 hr r at 20 nM (IC50); type: functional, cell-based
ABAE = test: Inhibition of ABAE […] cell proliferation; type: functional, cell-based
A2780 [18] = test: cells; details: Homo sapiens
Description: Cytotoxic activity against A2780 human ovarian carcinoma cell line

A2780 [19] = test: Inhibition of A2780 / TAX-S human ovarian carcinoma cell proliferation; type: functional, cell-based
HS27 = test: Inhibition of Hs 27 human fibroblast cell proliferation; type: functional, cell-based
[20] = Inhibition of Insulin-like growth factor receptor
[21] = molecular target: Cyclin-dependent kinase 2 (Homo sapiens) (UniProt P24941); test: Percentage A2780 cells in G1 after 24 hr r at 20 nM (IC50); type: functional, cell-based
A-431 = test: Inhibition of A431 human squamous cell carcinoma cell proliferation; type: functional, cell-based
[22] = molecular target: T1, Tyrosine-protein kinase ITK/TSK (Homo sapiens, UniProt Q08881); test: Inhibition of tyrosine kinase EMT
T1 sequence (Q08881 whole entry): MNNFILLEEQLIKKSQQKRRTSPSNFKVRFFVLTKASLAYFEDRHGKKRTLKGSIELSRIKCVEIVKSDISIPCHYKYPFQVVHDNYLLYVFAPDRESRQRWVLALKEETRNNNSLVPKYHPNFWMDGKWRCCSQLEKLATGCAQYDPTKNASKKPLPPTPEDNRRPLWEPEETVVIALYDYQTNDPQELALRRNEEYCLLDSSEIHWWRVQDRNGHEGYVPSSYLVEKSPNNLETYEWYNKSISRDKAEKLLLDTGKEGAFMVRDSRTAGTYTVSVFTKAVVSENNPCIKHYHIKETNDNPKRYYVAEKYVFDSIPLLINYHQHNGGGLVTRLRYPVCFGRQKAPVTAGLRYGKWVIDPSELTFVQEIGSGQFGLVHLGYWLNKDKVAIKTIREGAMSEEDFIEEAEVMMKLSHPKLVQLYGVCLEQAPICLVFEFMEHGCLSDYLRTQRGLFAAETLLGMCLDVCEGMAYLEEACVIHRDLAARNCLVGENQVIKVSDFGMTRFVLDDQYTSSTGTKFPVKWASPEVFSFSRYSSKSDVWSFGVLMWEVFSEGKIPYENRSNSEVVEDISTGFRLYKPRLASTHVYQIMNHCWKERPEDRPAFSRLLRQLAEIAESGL

MIP = test: Inhibition of MIP human colon carcinoma cell line; type: functional, cell-based
SK-BR-3 = test: Inhibition of SKBR-3 human breast carcinoma cell proliferation; type: functional, cell-based
HCT-116 [23] = test: Inhibition of HCT116 human colon carcinoma cell proliferation; type: functional, cell-based
[24] = molecular target: Cyclin-dependent kinase 2 (Homo sapiens) (UniProt P24941); test: Percentage A2780 cells in G2/M after 24 hr r at 295 nM (IC90); type: functional, cell-based

Structure (SMILES): CCc1cnc(CSc2cnc(NC(C)=O)s2)o1
- IC50 (A2780 [1]): 1.42 µM
- IC50 (MCF7): 1.47 µM
- Cell cycle [2]: 29%
- IC50 [3]: 0.3 µM
- Cell cycle [4]: 16%
- IC50 (A2780 [5]): 1.14 µM
- IC50 (A549): 1.87 µM
- Cell cycle [6]: 2%
- IC50 [7]: 2.25 µM
- IC50 (Caco-2): 1.61 µM
- IC50 (A2780 [8]): 1.05 µM
- Cell cycle [9]: 6%
- Cell cycle [10]: 6%
- IC50 (OVCAR-3): 1.21 µM
- IC50 (LX-1): 1.9 µM
- IC50 (HL-60): 1.4 µM
- IC50 [11]: 0.02 µM
- IC50 (K562): 3.23 µM
- IC50 (CCRF-CEM): 1.45 µM
- IC50 (MLF): 1.86 µM
- IC50 (PC-3): 1.06 µM
- IC50 (HCT-116 [12]): 0.53 µM
- Cell cycle [13]: 62%
- IC50 (M109): 2.1 µM
- Cell cycle [14]: 7%
- IC50 (HCT-116 [15]): 0.45 µM
- IC50 (LS174T): 1.71 µM
- IC50 [16]: > 25 µM
- Cell cycle [17]: 11%
- IC50 (ABAE): 1.1 µM
- IC50 (A2780 [18]): 1.4 µM
- IC50 (A2780 [19]): 0.7 µM
- IC50 (HS27): 0.86 µM
- IC50 [20]: > 25 µM
- Cell cycle [21]: 58%
- IC50 (A-431): 0.96 µM
- IC50 [22]: > 10 µM
- IC50 (MIP): 1.79 µM
- IC50 (SK-BR-3): 1.64 µM
- IC50 (HCT-116 [23]): 0.48 µM
- Cell cycle [24]: 25%

Structure (SMILES): CC(C)(C)c1cnc(CSc2cnc(NC(=O)c3ccccc3)s2)o1
- IC50 [7]: 0.96 µM

Structure (SMILES): CC(=O)Nc1ncc(SCc2ncc(-c3ccccc3)o2)s1
- IC50 [7]: 4.51 µM
- IC50 [11]: 0.35 µM

Structure (SMILES): CC(=O)Nc1ncc(SCc2nc(C)c(C)o2)s1
- IC50 [11]: 0.36 µM

Structure (SMILES): CC(=O)Nc1ncc(SCc2ccccn2)s1
- IC50 [11]: > 1 µM

Structure (SMILES): CCc1cnc(CSc2cnc(NC(=O)C(C)C)s2)o1
- IC50 [3]: 0.06 µM
- IC50 [7]: 1.07 µM
- IC50 [11]: 0.005 µM
- IC50 (A2780 [18]): 0.2 µM

Structure (SMILES): CCNC(=O)Nc1ncc(SCc2ncc(C(C)(C)C)o2)s1
- IC50 [11]: 0.05 µM
- IC50 (A2780 [18]): 0.12 µM

Structure (SMILES): CC(=O)Nc1ncc(SCCOc2ccccc2)s1
- IC50 [11]: > 1 µM

Structure (SMILES): CC(C)C(=O)Nc1ncc([S+]([O-])Cc2ncc(C(C)(C)C)o2)s1 (configuration not stated)
- IC50 [3]: 0.14 µM
- IC50 [7]: > 25 µM
- IC50 [11]: 0.14 µM

Structure (SMILES): CC(=O)Nc1ncc(SCC(=O)OC(C)(C)C)s1
- IC50 [3]: 0.44 µM
- IC50 [7]: 5.38 µM
- IC50 [11]: 0.05 µM

Structure (SMILES): CC(=O)Nc1ncc(SCc2cccnc2)s1
- IC50 [11]: 0.68 µM

Structure (SMILES): CC(=O)Nc1ncc(SCc2ncc(C)o2)s1
- IC50 [7]: 5.16 µM
- IC50 [11]: 0.09 µM

Structure (SMILES): CC(=O)Nc1ncc(SCC2CCCCC2)s1
- IC50 [11]: > 1 µM

Structure (SMILES): CC(C)(C)c1ncc(CSc2cnc(NC(=O)Cc3ccccc3)s2)o1
- IC50 [11]: 0.003 µM

Structure (SMILES): CC(=O)Nc1cnc(SCc2ncc(C(C)(C)C)o2)s1
- IC50 [11]: > 25 µM

Structure (SMILES): CC(=O)Nc1ncc(SCC(=O)OCc2ccccc2)s1
- IC50 [3]: 2.38 µM
- IC50 [7]: 19.1 µM
- IC50 [11]: 0.34 µM

Structure (SMILES): CC(=O)Nc1nnc(SCC(=O)OC(C)(C)C)s1
- IC50 [11]: > 25 µM

Next, values leading:

- IC50 [3]: 0.06 µM
- IC50 [7]: 1.07 µM
- IC50 [11]: 0.006 µM
- IC50 (A2780 [18]): 0.2 µM
Structure (SMILES): CC(=O)Nc1ncc(SCc2ncc(C(C)C)o2)s1

- IC50 [11]: > 1 µM
Structure (SMILES): CC(=O)Nc1nc(CSc2cnc(NC(C)=O)s2)cs1

- IC50 [11]: > 1 µM
Structure (SMILES): COC(=O)c1ccc(CSc2cnc(NC(C)=O)s2)o1

- IC50 [11]: > 1 µM
Structure (SMILES): CCOC(=O)CCCCCSc1cnc(NC(C)=O)s1

- IC50 [11]: 12.6 µM
Structure (SMILES): CC(=O)Nc1ncc(SCCc2ccccc2)s1

- IC50 [11]: 1.84 µM
Structure (SMILES): CC(=O)Nc1ncc(SCC(=O)CC(C)(C)C)s1

- IC50 [11]: > 1 µM
Structure (SMILES): COC(=O)C(Sc1cnc(NC(C)=O)s1)c1ccccc1 (configuration not stated)

- IC50 [3]: 0.04 µM
- IC50 [7]: 0.69 µM
- IC50 [11]: 0.005 µM
Structure (SMILES): CC(=O)Nc1ncc(SCc2ncc(C(C)(C)C)o2)s1
